# In the NIST ThermoML archive (doi:10.1021/je400884v):
# Numbers after ± are expanded uncertainties.
# Experiment: an = ratio of the nth substance listed
# Conditions: 101 kPa, Liquid, Pycnometric method
"mass density (293.15 K, a1 = 0.25)","mass density (293.15 K, a1 = 0.33)","mass density (303.15 K, a1 = 0.25)","mass density (303.15 K, a1 = 0.33)","mass density (313.15 K, a1 = 0.25)","mass density (313.15 K, a1 = 0.33)","mass density (323.15 K, a1 = 0.25)","mass density (323.15 K, a1 = 0.33)",Compound,"mass density (293.15 K, a2 = 0.25)","mass density (293.15 K, a2 = 0.33)","mass density (303.15 K, a2 = 0.25)","mass density (303.15 K, a2 = 0.33)","mass density (313.15 K, a2 = 0.25)","mass density (313.15 K, a2 = 0.33)","mass density (323.15 K, a2 = 0.25)","mass density (323.15 K, a2 = 0.33)"
–,–,–,–,–,–,–,–,"CC(O)C(C)O (centres undefined) [2,3-butanediol] + C[N+](C)(C)CCO.[Cl-]",1035 ± 1.7 kg/m3,1046.8 ± 1.7 kg/m3,1030.9 ± 1.7 kg/m3,1039 ± 1.7 kg/m3,1026.5 ± 1.7 kg/m3,1035.7 ± 1.7 kg/m3,1019.7 ± 1.7 kg/m3,1030 ± 1.7 kg/m3
–,–,–,–,–,–,–,–,"OCCCCO [1,4-butanediol] + C[N+](C)(C)CCO.[Cl-]",1044.5 ± 1.7 kg/m3,1052.4 ± 1.7 kg/m3,1041.1 ± 1.7 kg/m3,1049 ± 1.7 kg/m3,1035.4 ± 1.7 kg/m3,1043.2 ± 1.7 kg/m3,1030.6 ± 1.7 kg/m3,1038.4 ± 1.7 kg/m3
1066.3 ± 1.7 kg/m3,1066.6 ± 1.7 kg/m3,1060.2 ± 1.7 kg/m3,1059.9 ± 1.7 kg/m3,1054.1 ± 1.7 kg/m3,1053.3 ± 1.7 kg/m3,1048 ± 1.7 kg/m3,1046.7 ± 1.7 kg/m3,C[N+](C)(C)CCO.[Cl-] [choline chloride] + CC(O)CO,–,–,–,–,–,–,–,–
